Measured values published in PubChem BioAssay AID1845196 (Molecular Pharmacology Branch, DTP, NCI, 2023).
“And” between values parts separate entries of the source, which are not always exact repeats. Equal entries are not always repeated.

Test system: 292921-168-R tumor spheroid viability
Test: Anticancer human tumor 292921-168-R patient-derived pancreatic carcinoma cell line growth inhibition
Conditions: spheroids with HUVEC and MSC; for viability, T/C: stronger effect = lower value
Method in brief: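 Complex tumor spheroids combined malignant cells with endothelial cells and mesenchymal stem cells. DNA-damaging drugs and DNA repair inhibitors were tested alone and in combination, at half-log dilutions down from clinical Cmax (top 10 microM if Cmax unknown), 0.25% DMSO final.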
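Further: spheroids exposed to compounds for 7 days.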

CNCc1ccc(-c2cc(-c3nc(-c4ccc(S(=O)(=O)C(C)C)cc4)cnc3N)on2)cc1 + Cn1nnc2c(C(N)=O)ncn2c1=O
IC50 (curve of first compound, second compound 1 µM): 205 nM
IC50 (curve of first compound, second compound 3.16 µM): 212 nM
IC50 (curve of first compound, second compound 10 µM): 214 nM
IC50 (curve of first compound, second compound 31.6 µM): 178 nM
IC50 (curve of first compound, second compound 100 µM): 136 nM
viability, T/C (second compound 1 µM, first compound 0.00949 µM): 90%
viability, T/C (second compound 1 µM, first compound 0.03 µM): 85.7%
viability, T/C (second compound 1 µM, first compound 0.0949 µM): 70.7%
viability, T/C (second compound 1 µM, first compound 0.3 µM): 37.7%
viability, T/C (second compound 1 µM, first compound 0.949 µM): 23.1%
viability, T/C (second compound 1 µM, first compound 3 µM): 9.35%
viability, T/C (second compound 3.16 µM, first compound 0.00949 µM): 97.1%
viability, T/C (second compound 3.16 µM, first compound 0.03 µM): 92.8%
viability, T/C (second compound 3.16 µM, first compound 0.0949 µM): 67.9%
viability, T/C (second compound 3.16 µM, first compound 0.3 µM): 41.9%
viability, T/C (second compound 3.16 µM, first compound 0.949 µM): 22%
viability, T/C (second compound 3.16 µM, first compound 3 µM): 12%
viability, T/C (second compound 10 µM, first compound 0.00949 µM): 96.4%
viability, T/C (second compound 10 µM, first compound 0.03 µM): 88.6%
viability, T/C (second compound 10 µM, first compound 0.0949 µM): 71.7%
viability, T/C (second compound 10 µM, first compound 0.3 µM): 40.2%
viability, T/C (second compound 10 µM, first compound 0.949 µM): 20.4%
viability, T/C (second compound 10 µM, first compound 3 µM): 9.2%
viability, T/C (second compound 31.6 µM, first compound 0.00949 µM): 91.6%
viability, T/C (second compound 31.6 µM, first compound 0.03 µM): 79.2%
viability, T/C (second compound 31.6 µM, first compound 0.0949 µM): 72.2%
viability, T/C (second compound 31.6 µM, first compound 0.3 µM): 31.6%
viability, T/C (second compound 31.6 µM, first compound 0.949 µM): 17.2%
viability, T/C (second compound 31.6 µM, first compound 3 µM): 8.61%
viability, T/C (second compound 100 µM, first compound 0.00949 µM): 81.9%
viability, T/C (second compound 100 µM, first compound 0.03 µM): 82.3%
viability, T/C (second compound 100 µM, first compound 0.0949 µM): 61.5%
viability, T/C (second compound 100 µM, first compound 0.3 µM): 23.9%
viability, T/C (second compound 100 µM, first compound 0.949 µM): 13.1%
viability, T/C (second compound 100 µM, first compound 3 µM): 7.83%

Cc1sc2c(c1C)C(c1ccc(Cl)cc1)=NC(CC(=O)Nc1ccc(O)cc1)c1nnc(C)n1-2 (centres undefined) + CC[C@@]1(O)C(=O)OCc2c1cc1n(c2=O)Cc2cc3c(CN(C)C)c(O)ccc3nc2-1
IC50 (curve of first compound, second compound 0.003 µM): 389 nM
IC50 (curve of first compound, second compound 0.00949 µM): 449 nM
IC50 (curve of first compound, second compound 0.03 µM): < 9.49 nM
IC50 (curve of first compound, second compound 0.0949 µM): < 9.49 nM
IC50 (curve of first compound, second compound 0.3 µM): < 9.49 nM
viability, T/C (second compound 0.003 µM, first compound 0.00949 µM): 92.5%
viability, T/C (second compound 0.003 µM, first compound 0.03 µM): 67.6%
viability, T/C (second compound 0.003 µM, first compound 0.0949 µM): 62%
viability, T/C (second compound 0.003 µM, first compound 0.3 µM): 57.6%
viability, T/C (second compound 0.003 µM, first compound 0.949 µM): 44.1%
viability, T/C (second compound 0.003 µM, first compound 3 µM): 28.5%
viability, T/C (second compound 0.00949 µM, first compound 0.00949 µM): 81.1%
viability, T/C (second compound 0.00949 µM, first compound 0.03 µM): 67.4%
viability, T/C (second compound 0.00949 µM, first compound 0.0949 µM): 63.8%
viability, T/C (second compound 0.00949 µM, first compound 0.3 µM): 56.3%
viability, T/C (second compound 0.00949 µM, first compound 0.949 µM): 43.5%
viability, T/C (second compound 0.00949 µM, first compound 3 µM): 21.6%
viability, T/C (second compound 0.03 µM, first compound 0.00949 µM): 31.5%
viability, T/C (second compound 0.03 µM, first compound 0.03 µM): 31.4%
viability, T/C (second compound 0.03 µM, first compound 0.0949 µM): 29.6%
viability, T/C (second compound 0.03 µM, first compound 0.3 µM): 25%
viability, T/C (second compound 0.03 µM, first compound 0.949 µM): 13.8%
viability, T/C (second compound 0.03 µM, first compound 3 µM): 2.79%
viability, T/C (second compound 0.0949 µM, first compound 0.00949 µM): 9.7%
viability, T/C (second compound 0.0949 µM, first compound 0.03 µM): 8.41%
viability, T/C (second compound 0.0949 µM, first compound 0.0949 µM): 6.38%
viability, T/C (second compound 0.0949 µM, first compound 0.3 µM): 3.78%
viability, T/C (second compound 0.0949 µM, first compound 0.949 µM): 1.73%
viability, T/C (second compound 0.0949 µM, first compound 3 µM): 1.06%
viability, T/C (second compound 0.3 µM, first compound 0.00949 µM): 4.29%
viability, T/C (second compound 0.3 µM, first compound 0.03 µM): 3.58%
viability, T/C (second compound 0.3 µM, first compound 0.0949 µM): 3.16%
viability, T/C (second compound 0.3 µM, first compound 0.3 µM): 1.72%
viability, T/C (second compound 0.3 µM, first compound 0.949 µM): 0.92%
viability, T/C (second compound 0.3 µM, first compound 3 µM): 0.66%

Cn1ncnc1[C@H]1c2n[nH]c(=O)c3cc(F)cc(c23)N[C@@H]1c1ccc(F)cc1
viability, T/C (compound 0.00949 µM): 101% and 87.5% and 95.8%
viability, T/C (compound 0.03 µM): 93.7% and 83.1% and 93%
viability, T/C (compound 0.0949 µM): 87.9% and 81.8% and 80.5%
viability, T/C (compound 0.3 µM): 68.6% and 62.7% and 63.2%
viability, T/C (compound 0.949 µM): 41.3% and 36.9% and 46%
viability, T/C (compound 3 µM): 14% (2×) and 11.2%
IC50 (curve of compound): 661 nM and 537 nM and 692 nM

CC1COCCN1c1cc(-c2ccnn2C)c2ccnc(-c3ccn[nH]3)c2n1 (centres undefined)
viability, T/C (compound 0.0316 µM): 26.3% and 36.1% and 39.6%
viability, T/C (compound 0.1 µM): 14.2% and 20.1% and 22%
viability, T/C (compound 0.316 µM): 11.9% and 13.8% and 14.4%
viability, T/C (compound 1 µM): 13.8% and 13.7% (2×)
viability, T/C (compound 3.16 µM): 14.8% and 14.5% and 14.9%
viability, T/C (compound 10 µM): 16.8% and 16% and 16.7%
IC50 (curve of compound): < 31.6 nM
